Source: US8168647B2, “Vinblastine derivatives, their preparation, use and pharmaceutical compositions comprising the said derivatives” (Shanghai Institute of Materia Medica Chinese Academy of …, priority 2007, dated 2012)

Assays:
[1] = system: human non-small cell lung cancer cell line A-549; experiment: In vitro cytotoxicity assay, Sulforhodamine B (SRB), A-549; assay type: cell-based; conditions: Homo sapiens, A549, 72 h, read-out: A549 (IC50, nM)
[2] = system: human cervical carcinoma cell line Hela; experiment: In vitro cytotoxicity assay, Sulforhodamine B (SRB), Hela; assay type: cell-based; conditions: Homo sapiens, HeLa, 72 h, read-out: Hela (IC50, nM)

CCOCC1(O)[C@H](OC(C)=O)[C@]2(CC)C=CCN3CC[C@@]4(c5cc([C@@]6(C(=O)OC)C[C@@H]7C=C(CC)CN(CCc8c6[nH]c6ccccc86)C7)c(OC)cc5N(C)[C@@H]14)[C@@H]32 (stereo partly drawn) [BM1]
IC50 [1]: 348 nM
IC50 [2]: 154 nM

C=CCOCC1(O)[C@H](OC(C)=O)[C@]2(CC)C=CCN3CC[C@@]4(c5cc([C@@]6(C(=O)OC)C[C@@H]7C=C(CC)CN(CCc8c6[nH]c6ccccc86)C7)c(OC)cc5N(C)[C@@H]14)[C@@H]32 (stereo partly drawn) [BM2]
IC50 [1]: 441 nM
IC50 [2]: 113 nM

CCCOCC1(O)[C@H](OC(C)=O)[C@]2(CC)C=CCN3CC[C@@]4(c5cc([C@@]6(C(=O)OC)C[C@@H]7C=C(CC)CN(CCc8c6[nH]c6ccccc86)C7)c(OC)cc5N(C)[C@@H]14)[C@@H]32 (stereo partly drawn) [BM3]
IC50 [1]: > 1000 nM
IC50 [2]: > 1000 nM

CCCCOCC1(O)[C@H](OC(C)=O)[C@]2(CC)C=CCN3CC[C@@]4(c5cc([C@@]6(C(=O)OC)C[C@@H]7C=C(CC)CN(CCc8c6[nH]c6ccccc86)C7)c(OC)cc5N(C)[C@@H]14)[C@@H]32 (stereo partly drawn) [BM4]
IC50 [1]: > 1000 nM
IC50 [2]: 295 nM

CCC1=C[C@@H]2CN(CCc3c([nH]c4ccccc34)[C@@](C(=O)OC)(c3cc4c(cc3OC)N(C)[C@H]3C(O)(COCc5ccc(OC)cc5)[C@H](OC(C)=O)[C@]5(CC)C=CCN6CC[C@]43C65)C2)C1 (stereo partly drawn) [BM5]
IC50 [1]: > 1000 nM
IC50 [2]: 286 nM

CCC1=C[C@@H]2CN(CCc3c([nH]c4ccccc34)[C@@](C(=O)OC)(c3cc4c(cc3OC)N(C)[C@H]3C(O)(COC(C)=O)[C@H](OC(C)=O)[C@]5(CC)C=CCN6CC[C@]43C65)C2)C1 (stereo partly drawn) [BM6]
IC50 [1]: 124 nM
IC50 [2]: 47.6 nM

CCC(=O)OCC1(O)[C@H](OC(C)=O)[C@]2(CC)C=CCN3CC[C@@]4(c5cc([C@@]6(C(=O)OC)C[C@@H]7C=C(CC)CN(CCc8c6[nH]c6ccccc86)C7)c(OC)cc5N(C)[C@@H]14)[C@@H]32 (stereo partly drawn) [BM10]
IC50 [1]: 710 nM
IC50 [2]: 637 nM

CCC1=C[C@@H]2CN(CCc3c([nH]c4ccccc34)[C@@](C(=O)OC)(c3cc4c(cc3OC)N(C)[C@H]3C(O)(COC(=O)C(C)C)[C@H](OC(C)=O)[C@]5(CC)C=CCN6CC[C@]43[C@@H]65)C2)C1 (stereo partly drawn) [BM11]
IC50 [1]: > 1000 nM
IC50 [2]: > 1000 nM

CCC1=C[C@@H]2CN(CCc3c([nH]c4ccccc34)[C@@](C(=O)OC)(c3cc4c(cc3OC)N(C)[C@H]3C(O)(COC(=O)C(C)(C)C)[C@H](OC(C)=O)[C@]5(CC)C=CCN6CC[C@]43C65)C2)C1 (stereo partly drawn) [BM12]
IC50 [1]: 576 nM
IC50 [2]: 95.9 nM

CCC1=C[C@@H]2CN(CCc3c([nH]c4ccccc34)[C@@](C(=O)OC)(c3cc4c(cc3OC)N(C)[C@H]3C(O)(COC(=O)CC(C)C)[C@H](OC(C)=O)[C@]5(CC)C=CCN6CC[C@]43[C@@H]65)C2)C1 (stereo partly drawn) [BM13]
IC50 [1]: > 1000 nM
IC50 [2]: > 1000 nM

CCC1=C[C@@H]2CN(CCc3c([nH]c4ccccc34)[C@@](C(=O)OC)(c3cc4c(cc3OC)N(C)[C@H]3C(O)(COC(=O)C5CC5)[C@H](OC(C)=O)[C@]5(CC)C=CCN6CC[C@]43[C@@H]65)C2)C1 (stereo partly drawn) [BM14]
IC50 [1]: > 1000 nM
IC50 [2]: > 1000 nM

CCC1=C[C@@H]2CN(CCc3c([nH]c4ccccc34)[C@@](C(=O)OC)(c3cc4c(cc3OC)N(C)[C@H]3C(O)(COC(=O)Cc5ccccc5)[C@H](OC(C)=O)[C@]5(CC)C=CCN6CC[C@]43[C@@H]65)C2)C1 (stereo partly drawn) [BM15]
IC50 [1]: > 1000 nM
IC50 [2]: 228 nM

CCC1=C[C@@H]2CN(CCc3c([nH]c4ccccc34)[C@@](C(=O)OC)(c3cc4c(cc3OC)N(C)[C@H]3C(O)(COC(=O)NCC(C)C)[C@H](OC(C)=O)[C@]5(CC)C=CCN6CC[C@]43C65)C2)C1 (stereo partly drawn) [BM22]
IC50 [1]: > 1000 nM
IC50 [2]: > 1000 nM

CCCCNC(=O)OCC1(O)[C@H](OC(C)=O)[C@]2(CC)C=CCN3CC[C@@]4(c5cc([C@@]6(C(=O)OC)C[C@@H]7C=C(CC)CN(CCc8c6[nH]c6ccccc86)C7)c(OC)cc5N(C)[C@@H]14)[C@@H]32 (stereo partly drawn) [BM23]
IC50 [1]: > 1000 nM
IC50 [2]: > 1000 nM

CCC1=C[C@@H]2CN(CCc3c([nH]c4ccccc34)[C@@](C(=O)OC)(c3cc4c(cc3OC)N(C)[C@H]3C(O)(COC(=O)NCCC(C)C)[C@H](OC(C)=O)[C@]5(CC)C=CCN6CC[C@]43[C@@H]65)C2)C1 (stereo partly drawn) [BM24]
IC50 [1]: > 1000 nM
IC50 [2]: > 1000 nM
